Data from publication PMC11679778, “Jeju Citrus (Citrus unshiu) Leaf Extract and Hesperidin Inhibit Small Intestinal α-Glucosidase Activities In Vitro and Postprandial Hyperglycemia in Animal Model” (International Journal of Molecular Sciences, 2024).

What was measured:
[1] = biological target: T1, maltase (rat small intestinal); test: liberated glucose by glucose oxidase method; assay type: biochemical; conditions: crude rat intestinal acetone powder supernatant; maltose substrate; 0.1 M phosphate pH 7.0
T1 construct: gene Mgam; native; crude supernatant of commercial rat intestinal acetone powder (Sigma-Aldrich), not purified; maltose as substrate
Text: liberated glucose by glucose oxidase method on maltase (rat small intestinal)

[2] = biological target: T2, rat small intestinal α-glucosidase; test: pNPG hydrolysis, absorbance […] nm; assay type: biochemical; conditions: crude rat intestinal acetone powder supernatant; pNPG substrate; 0.1 M phosphate pH 6.9, 37 °C
T2 construct: gene Mgam; native; crude supernatant of commercial rat intestinal acetone powder (Sigma-Aldrich), not purified; pNPG as substrate

`COc1ccc([C@@H]2CC(=O)c3c(O)cc(O[C@@H]4O[C@H](CO[C@@H]5O[C@@H](C)[C@H](O)[C@@H](O)[C@H]5O)[C@@H](O)[C@H](O)[C@H]4O)cc3O2)cc1O` [hesperidin] was tested, and the HP [1] was 1.04 ± 0.03 mg/mL and the HP [2] was 0.99 ± 0.14 mg/mL.
